Results taken from patent US20120219535A1, “CRANIAL NEURAL CREST STEM CELLS AND CULTURE CONDITION THAT SUPPORTS THEIR GROWTH” (University of Southern California, priority 2009, published 2012).
Entries after “also recorded” stand apart in the source; their conditions may differ.

Experiments:
[1] = system: cells which are independent from the JAK-STAT signal; settings: cited from earlier work
[2] = system: primary cultured cranial neural crest cells; assay: AG490 (Jak inhibitor) treatment of primary cultured cranial neural crest cells, alive cell count; format: cell-based, mouse; settings: E8.5 FACS sorted cells
Protocol: (§1) AG490 (Sigma Chemical Co., St Louis, Mo., USA) was reconstituted in dimethyl sulfoxide (DMSO) and stored at −20° C. A stock concentration was 10 mM. Cranial tissues of Wnt1-Cre;R26R;EGFP mouse at E8.5 were dissociated by 0.025% trypsin and 1 mg/ml collagenase in DPBS. Then, neural crest cells labeled with Wnt1-Cre;R26R;EGFP were sorted by means of FACS and used for Jak inhibitor treatment. D7-1 or primary cultured cranial neural crest cells were seeded to fibronectin coated plate at a density of 20000 or 12700 cell/cm^2 respectively, and incubated for three days in basal medium as described above, added with either control DMSO, 10 μM AG490, or 20 μM AG490. Culture medium was changed daily. Alive cell number was counted on each day for D7-1 and third day for primary cultured cells.
These experiments were done with a long-term cultured craNCSC clone, D7-1, which has been treated with LIF during entire culture process. Therefore, it is possible that D7-1 cells has been poised to LIF and adopted to the JAK-STAT dependent culture condition. To evaluate this, Applicants freshly isolated Wnt1-Cre;R26R;EGFP positive cranial neural crest cells from E8.5 mouse embryos by FACS sorting and treated them with AG490 for three days. If JAK2 activity is dispensable to these primary neural crest, chemical treatment would not cause any apparent effects. […]

[3] = system: human B-precursor leukemic cell line; settings: by inducing apoptosis; cited from earlier work
[4] = system: STAT3 negative cells; settings: 80 μM AG490; cited from earlier work
[5] = system: craNCSC clone D7-1; assay: AG490 (Jak inhibitor) treatment of long-term cultured craNCSC clone D7-1, alive cell count; format: cell-based, mouse; settings: counted daily, vs 0.4% DMSO vehicle
Protocol: as §1
The hypothesis that phosphorylation of STAT3 by JAK kinase is essential for the maintenance of craNCSC was also investigated. JAK inhibitor AG490 was used for this study. AG490 is synthetic PTK inhibitor with anti-JAK2 activity. […] If craNCSC require the JAK-STAT signal for its maintenance, treatment of AG490 will cause overt effects. 10 μM and 20 μM AG490 treatment against D7-1 was performed for three days and alive cell number was counted on each day. […] Dose dependent susceptibility of D7-1 against AG490 was also evident.

For `N#C/C(=C/c1ccc(O)c(O)c1)C(=O)NCc1ccccc1` [AG490], the effect on cells [1] is given as “no obvious effect”, the “cell mortality (alive cell number)” value ([2]; 10 μM AG490, three days) is given as “High cell mortality” and the “cell mortality (alive cell number)” value ([2]; 20 μM AG490, three days) is given as “High cell mortality”. The cell growth [3] was “prevents the growth”, the general toxicity [4] was “does not cause general toxicity” and the “alive (viable) cell number” value ([5]; 10 μM AG490, three days) was “smaller effect; also recorded: more modest effect”. The “alive (viable) cell number” value ([5]; 20 μM AG490, three days) was “significant reduction of the viable cells; also recorded: significant depletion of cell survival”.
